Test [1] has as its system brain monoamine metabolites. Kind of test: Increasing effect on concentration of brain monoamine metabolites. It is filed as in vivo, mice (Std-ddy strain). Conditions: Mus musculus, 2 h, non-dosed=100. As for the experimental part: A group of 5 male mice (Std-ddy strain, 25-30 g) was used for examining effect of the test compounds on concentration of brain monoamine metabolites.
Mice were killed by decapitation 2 hours after treatment with the test compounds. Brains were quickly taken out, homogenized in 1N formic acid-acetone solution, and centrifuged in a refrigerated ultracentrifuge. The supernatant was evaporated by blowing with N2 gas. Then, the residue was again resolved in 0.01 N acetic acid, and served for determining concentration of dopamine metabolites, 3,4-dihydroxyphenylacetic acid (DOPAC) and homovanillic acid (HVA), a norepinephrine metabolite, 3-methyl-4-hydroxyphenylethylene glycol (MOPEG), and a serotonin metabolite, 5-hydroxyindole-3-acetic acid (5-HIAA) concentrations by HPLC with electrochemical detection. The effect of the test compounds on concentration of each monoamine metabolite is shown as % of control (level of non-dosed animals=100) in Table 4.

Test [2] concerns apomorphine-induced vomiting. The experiment in a line: Antagonistic effect on apomorphine-induced vomiting. The class given is in vivo, dogs (Beagle). To be noted: Canis lupus familiaris, sc, apomorphine 0.3 mg/kg s.c. 2 h after compound, read-out: Inhibitory ratio (apomorphine-induced vomiting). The protocol:
A group of 3-4 dogs (Beagle, 8-15 kg) was used for examining effects on the test compounds on apomorphine-induced vomiting, a known test for evaluating neuroleptic drugs.
Each dog was given a subcutaneous injection of apomorphine hydrochloride (0.3 mg/kg) two hours after the treatment of the test compounds. Then, the frequency of oral vomiting was counted for one hour. The mean counts of the compound-treated group were compared with those of the corresponding control (non-dosed) group, and the percent inhibition was calculated.

Setting [3] is: read-out: 5-HIAA concentration, % of control.
Setting [4] is: read-out: DOPAC concentration, % of control.
Where [5] appears, read: read-out: HVA concentration, % of control.
[6] abbreviates: read-out: MOPEG concentration, % of control.

Structures are written as SMILES. Counter-ions that a name gives are not always drawn. Like-named read-outs stand apart in the source and are kept apart here.

Consider `OCCN1CCN(c2cc(-c3ccccc3)c3c(n2)CCCCC3)CC1` [Example 24], for which the response vs control in vivo at 10 mg/kg in test [1] (setting [3]) stood at 150%; in test [1] (setting [4]), 290%; in test [1] (setting [5]) it was 317%; in test [1] (setting [6]) it was 139%.
`OCCN1CCN(c2cc(-c3ccc(F)cc3)c3c(n2)CCCCC3)CC1` [Example 26]: the response vs control in vivo at 10 mg/kg is 344% in test [1] (setting [4]) and 263% in test [1] (setting [5]).
As for `CCN1CCN(c2cc(-c3cccc(F)c3)c3c(n2)CCCCC3)CC1` [Example 27], in test [2], the inhibition in vivo at 3 mg/kg is 47%. Also, the response vs control in vivo at 10 mg/kg is 208% in test [1] (setting [4]) and 193% in test [1] (setting [5]).
As to `CCN1CCN(c2cc(-c3ccccc3F)c3c(n2)CCCCC3)CC1` [Example 29], the inhibition in vivo at 3 mg/kg in test [2] is 63%. Besides, the response vs control in vivo at 10 mg/kg worked out at 296% in test [1] (setting [4]) and 274% in test [1] (setting [5]).
Take `Cc1ccc(-c2cc(N3CCN(CCO)CC3)nc3c2CCCCC3)cc1` [Example 35]: the response vs control in vivo at 10 mg/kg in test [1] (setting [4]) was 165%; in test [1] (setting [5]), 170%.
Turning to `Fc1ccc(-c2cc(N3CCN(C4CCCCC4)CC3)nc3c2CCCCCC3)cc1` [Example 39], the response vs control in vivo at 10 mg/kg in test [1] (setting [3]) came to 97%; in test [1] (setting [4]), 307%; in test [1] (setting [5]), 233%; in test [1] (setting [6]), 117%.
Take `CCN1CCN(c2cc(-c3cccc(F)c3)c3c(n2)CCCCCC3)CC1` [Example 42]: the figures for the response vs control in vivo at 10 mg/kg in test [1] (setting [4]) and in test [1] (setting [5]) were 258% and 211%, respectively.
`CCN1CCN(c2cc(-c3ccccc3F)c3c(n2)CCCCCC3)CC1` [Example 43]: the inhibition in vivo at 1 mg/kg in test [2] was 96%.
For the compound `CCN1CCN(c2cc(-c3ccc(Cl)cc3)c3c(n2)CCCCCC3)CC1` [Example 44], the values for the response vs control in vivo at 10 mg/kg in test [1] (setting [4]) and in test [1] (setting [5]) were 272% and 210%, respectively.
Turning to `CCN1CCN(c2cc(-c3cccc(Cl)c3)c3c(n2)CCCCCC3)CC1` [Example 46], the response vs control in vivo at 10 mg/kg was determined as 296% in test [1] (setting [4]) and 235% in test [1] (setting [5]).
With `CCN1CCN(c2cc(-c3ccc(OC)cc3)c3c(n2)CCCCCC3)CC1` [Example 49, 2-(4-Ethyl-1-piperazinyl)-4-(4-methoxyphenyl)-5,6,7,8,9,10-hexahydrocycloocta[b]pyridine], the response vs control in vivo at 10 mg/kg in test [1] (setting [4]) came to 197%; in test [1] (setting [5]) it was 195%.
As for `Cc1ccc(-c2cc(N3CCN(CCO)CC3)nc3c2CCCCCC3)cc1` [Example 52], the response vs control in vivo at 10 mg/kg in test [1] (setting [4]) came to 233%; in test [1] (setting [5]) it was 216%.
`CCN1CCN(c2cc(-c3ccc(F)c(F)c3)c3c(n2)CCCCCC3)CC1` [Example 54]: the values for the response vs control in vivo at 2 mg/kg in test [1] (setting [4]) and in test [1] (setting [5]) were 251% and 250%, respectively.
Consider `CCN1CCN(c2cc(-c3c(F)cccc3F)c3c(n2)CCCCCC3)CC1` [Example 55], for which the response vs control in vivo at 2 mg/kg in test [1] (setting [4]) worked out at 379%; in test [1] (setting [5]) it was 240%.
Consider `CCN1CCN(c2cc(-c3ccc(F)cc3)c3c(n2)CCC(C)C3)CC1` (stereo not shown) [Example 59], for which the response vs control in vivo at 2 mg/kg in test [1] (setting [3]) came to 106%; in test [1] (setting [4]), 246%; in test [1] (setting [5]) it was 236%; in test [1] (setting [6]), 126%.
Regarding `CCN1CCN(c2cc(-c3ccc(F)cc3)c3c(n2)CC(C)(C)CC3C)CC1` (stereo not shown) [Example 68], the response vs control in vivo at 2 mg/kg in test [1] (setting [4]) stood at 206%; in test [1] (setting [5]), 181%.
`COCCN1CCN(c2cc(-c3ccc(F)cc3)c3c(n2)CCCCCC3)CC1` [Example 82, 2-[4-(2-Methoxyethyl)-1-piperazinyl]-4-(4-fluorophenyl)-5,6,7,8,9,10-hexahydrocycloocta[b]pyridine dimaleate]: the inhibition in vivo at 1 mg/kg in test [2] came out at 100%.
Regarding `CC1CN(c2cc(-c3ccc(F)cc3)c3c(n2)CCCCCC3)CC(C)N1` (stereo not shown) [Example 84, 2-(3,5-Dimethyl-1-piperazinyl)-4-(4-fluorophenyl)-5,6,7,8,9,10-hexahydrocycloocta[b]pyridine 1/2 fumarate], the response vs control in vivo at 10 mg/kg in test [1] (setting [4]) was determined as 237%; in test [1] (setting [5]) it was 216%.
`Fc1ccc(-c2cc(N3CCNCC3)nc3c2CCCCCC3)cc1` [Example 104, 2-(1-piperazinyl)-4-(4-fluorophenyl)-5,6,7,8,9,10-hexahydrocycloocta[b]pyridine]: the response vs control in vivo at 10 mg/kg in test [1] (setting [3]) turned out to be 97%; in test [1] (setting [4]), 344%; in test [1] (setting [5]) it was 247%; in test [1] (setting [6]) it was 160%.
Take `CC1CN(c2cc(-c3ccc(F)cc3)c3c(n2)CCCCCC3)CCN1C` (stereo not shown) [Example 116, 2-(3,4-Dimethyl-1-piperazinyl)-4-(4-fluorophenyl)-5,6,7,8,9,10-hexahydrocycloocta[b]pyridine fumarate 1/4 hydrate]: in test [2], the inhibition in vivo at 1 mg/kg is 100%.
Regarding `C[C@@H]1CN(c2cc(-c3ccc(F)cc3)c3c(n2)CCCCCC3)C[C@H](C)N1C` [Example 117, 2-(cis-3,5-Dimethyl-4-methyl-1-piperazinyl)-4-(4-fluorophenyl)-5,6,7,8,9,10-hexahydrocycloocta[b]pyridine fumarate], the response vs control in vivo at 10 mg/kg in test [1] (setting [3]) came out at 100%; in test [1] (setting [4]), 242%; in test [1] (setting [5]) it was 210%; in test [1] (setting [6]), 133%.
For `CCCCCCN1CCN(c2cc(-c3ccc(F)cc3)c3c(n2)CCCCCC3)CC1` [Example 124] the same measures were 107%, 292%, 238% and 102%.
Consider `CCN1CCN(c2cc(-c3ccc(F)cc3F)c3c(n2)CCCCC3)CC1` [Example 131, 2-(4-ethyl-1-piperazinyl)-4-(2,4-difluorophenyl)-6,7,8,9-tetrahydro-5H-cyclohepta[b]pyridine], for which the response vs control in vivo at 1 mg/kg in test [1] (setting [4]) turned out to be 319%; in test [1] (setting [5]), 224%.
Regarding `CCN1CCN(c2cc(-c3ccc(F)cc3F)c3c(n2)CCC3)CC1` [Example 132, 2-(4-ethyl-1-piperazinyl)-4-(2,4-difluorophenyl)-6,7-dihydro-5H-1-pyrindin], the response vs control in vivo at 10 mg/kg in test [1] (setting [4]) was determined as 333%; in test [1] (setting [5]), 209%.
Consider `CCN1CCN(c2cc(-c3ccc(F)cc3F)c3c(n2)C2CCC3C2)CC1` (stereo not shown) [Example 135, 2-(4-ethyl-1-piperazinyl)-4-(2,4-difluorophenyl)-5,6,7,8-tetrahydro-5,8-methanoquinoline], for which, in test [2], the inhibition in vivo at 1 mg/kg is 100%.
As to `OCCCN1CCN(c2cc(-c3ccc(F)cc3)c3c(n2)CCCCCC3)CC1` [Example 138, 2-[4-(3-hydroxypropyl)-1-piperazinyl]-4-(4-fluorophenyl)-5,6,7,8,9,10-hexahydrocycloocta[b]pyridine], the response vs control in vivo at 2 mg/kg in test [1] (setting [4]) stood at 236%; in test [1] (setting [5]), 173%.
With `CC(=O)OCCN1CCN(c2cc(-c3ccc(F)cc3)c3c(n2)CCCCCC3)CC1` [Example 139, 2-[4-(2-acetoxyethyl)-1-piperazinyl]-4-(4-fluorophenyl)-5,6,7,8,9,10-hexahydrocycloocta[b]pyridine], the response vs control in vivo at 10 mg/kg was found to be 267% in test [1] (setting [4]) and 206% in test [1] (setting [5]).

For the origin of these results see patent US5021421A, “2-(1-Piperazinyl)-4-phenylcycloalkanopyridine derivatives, processes for the production thereof, and pharmaceutical composition containing the same” (Dainippon Pharmaceutical Co., Ltd., priority 1989, dated 1991).
